We go through 8 compounds from patent US9809623B2, “α4β7 peptide monomer and dimer antagonists” (Protagonist Therapeutics, Inc., priority 2014, dated 2017).

Series [1] in a line: Simulated Intestinal Fluid (SIF) Stability Assay. The conditions noted are these: pig, simulated intestinal fluid (SIF) with 1% porcine pancreatin. Format: in vitro ADME, porcine. An outline of the steps: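 Intestinal stability: percent peptide remaining over time, by LC-MS/MS peak-area ratio to internal standard, fitted to first-order decay for half-life. Conditions: 22 μM peptide, 1% pancreatin in pH 6.5 blank FASSIF, 37 °C.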

Series [2] concerns the target T1, rh integrin α4β7 (Homo sapiens, UniProt P13612+P26010).
T1 construct: purchased R&D Systems 5397-A30
In words: α4β7-MAdCAM Competition ELISA. Format: binding. An outline of the steps: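 Competition read-out was A450 after anti-human IgG1-HRP and TMB detection of bound recombinant human MAdCAM-1 (10 nM final). Peptides were serially diluted 3-fold from a final 10 μM and equilibrated 1 h at room temperature on nickel-captured α4β7 (800 ng/well). The buffer was Tris pH 7.6 with 1 mM Mn2+ or Mg2+.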
Background: In an ELISA, binding on a coated surface is turned into a signal by an enzyme label.

The target in series [3] is T2, α4β1 (Homo sapiens, UniProt P05556+P13612, DEL729-798).
T2 construct: purchased R&D Systems 5668-A4
T2 sequence (P13612 34-977 limits assumed, stated change not applied): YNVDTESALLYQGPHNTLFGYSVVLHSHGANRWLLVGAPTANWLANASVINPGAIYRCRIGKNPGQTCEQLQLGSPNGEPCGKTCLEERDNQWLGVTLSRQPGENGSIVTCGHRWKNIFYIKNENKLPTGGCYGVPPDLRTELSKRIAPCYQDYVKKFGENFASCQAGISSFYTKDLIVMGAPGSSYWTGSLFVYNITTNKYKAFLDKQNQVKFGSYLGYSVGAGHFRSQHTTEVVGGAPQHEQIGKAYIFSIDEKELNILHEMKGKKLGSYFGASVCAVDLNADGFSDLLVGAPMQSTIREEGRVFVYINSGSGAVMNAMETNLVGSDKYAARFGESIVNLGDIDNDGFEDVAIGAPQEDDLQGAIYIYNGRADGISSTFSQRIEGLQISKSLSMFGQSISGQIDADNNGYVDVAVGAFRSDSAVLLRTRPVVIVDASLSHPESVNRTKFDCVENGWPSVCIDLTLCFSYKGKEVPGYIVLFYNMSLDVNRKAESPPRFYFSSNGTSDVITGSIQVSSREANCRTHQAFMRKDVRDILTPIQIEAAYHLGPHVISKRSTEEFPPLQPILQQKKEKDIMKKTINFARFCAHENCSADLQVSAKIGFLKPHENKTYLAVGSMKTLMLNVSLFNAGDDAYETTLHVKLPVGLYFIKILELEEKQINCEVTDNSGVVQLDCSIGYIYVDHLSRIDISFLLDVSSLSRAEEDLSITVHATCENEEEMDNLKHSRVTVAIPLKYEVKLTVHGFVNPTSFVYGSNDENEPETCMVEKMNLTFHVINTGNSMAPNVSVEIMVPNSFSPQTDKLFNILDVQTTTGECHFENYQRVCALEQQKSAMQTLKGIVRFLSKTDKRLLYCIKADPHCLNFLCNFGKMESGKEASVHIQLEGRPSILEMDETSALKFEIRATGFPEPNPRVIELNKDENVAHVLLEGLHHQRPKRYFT
T2 sequence (P05556 21-728 limits assumed, stated change not applied): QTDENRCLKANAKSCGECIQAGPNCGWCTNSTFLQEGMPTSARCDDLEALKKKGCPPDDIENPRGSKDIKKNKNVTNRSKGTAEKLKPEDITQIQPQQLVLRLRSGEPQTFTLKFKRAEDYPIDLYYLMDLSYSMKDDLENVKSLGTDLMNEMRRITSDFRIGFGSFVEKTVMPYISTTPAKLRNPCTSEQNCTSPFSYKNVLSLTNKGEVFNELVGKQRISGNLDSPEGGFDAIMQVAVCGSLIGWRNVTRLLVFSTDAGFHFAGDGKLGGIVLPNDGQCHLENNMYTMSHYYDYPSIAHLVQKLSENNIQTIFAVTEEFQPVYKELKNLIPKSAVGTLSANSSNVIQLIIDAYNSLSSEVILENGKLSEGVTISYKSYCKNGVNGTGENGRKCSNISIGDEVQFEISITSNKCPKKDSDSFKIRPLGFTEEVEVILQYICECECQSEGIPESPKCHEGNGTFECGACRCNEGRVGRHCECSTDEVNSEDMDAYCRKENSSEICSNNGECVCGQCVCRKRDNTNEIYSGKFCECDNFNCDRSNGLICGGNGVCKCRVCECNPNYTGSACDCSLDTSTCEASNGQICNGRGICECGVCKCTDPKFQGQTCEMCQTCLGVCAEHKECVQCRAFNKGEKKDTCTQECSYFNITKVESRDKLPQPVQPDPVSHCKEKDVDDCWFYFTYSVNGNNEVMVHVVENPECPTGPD
In words: α4β1-VCAM Competition ELISA. The format is binding. An outline of the steps: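 ELISA plates were coated with VCAM-1 Fc at 400 ng/well. Peptide dilutions (highest final 100 μM) and 60 nM α4β1 were incubated 2 h at 37 °C in pH 7.6 Tris buffer containing 1 mM Mn2+ or Mg2+. Integrin retained on the plate was detected by 9F10 antibody, then HRP secondary, with TMB absorbance at 450 nm.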

Setting [4] is: Table 3-B, Potency (α4β7), range classes, read-out: α4β7 ELISA IC50.
[5] abbreviates: Table 3-B, Selectivity (α4β1), range classes, read-out: α4β1 ELISA IC50.
Setting [6] is: pH 6.5, Table 4-C, t1/2, > means assay stopped at that time, read-out: SIF (porcine) Min.
Where [7] appears, read: Table 4-B, read-out: ELISA α4β7 IC50.
[8] abbreviates: Table 4-B, read-out: ELISA_α4β1 IC50.

Each structure is given as a SMILES string. Like-named read-outs stand apart in the source and are kept apart here. Numbered stars: 1 amine (or outer) side, 2 acyl side, 3 side chain; on linkers, the order of the positions; unused ones are H or OH. Bridge positions count the residues as written; N and C are the ends. Square brackets hold non-standard residues; d marks the D form. Peptide text beside a SMILES is read from it. I, II: the chains in the order shown. ξ: configuration not given here. X2 = O=C(CCOCCOCCOCCOCCOCCOCCOCCOCCOCCOCCOCCOCCOCCOCCOCCOCCOCCOCCOCCOCCOCCOCCOCCOCCOCCC(=O)[*:2])[*:1]; Phe(4-tBu) = CC(C)(C)c1ccc(C[C@H](N)C(=O)O)cc1; 1Nal = N[C@@H](Cc1cccc2ccccc12)C(=O)O; Diglycolyl = O=C(COCC(=O)[*:2])[*:1]; NMeR = CN[C@@H](CCCNC(=N)N)C(=O)O; β3hE = N[C@@H](CCC(=O)O)CC(=O)O; Thr(3ξ) = CC(O)[C@H](N)C(=O)O; NMeK = CN[C@@H](CCCCN)C(=O)O; Pen = CC(C)(S)[C@H](N)C(=O)O

T1 sequence (P13612 34-977 limits assumed): as the sequence (P13612 34-977 limits assumed, stated change not applied) above
T1 sequence (P26010 20-723 limits assumed): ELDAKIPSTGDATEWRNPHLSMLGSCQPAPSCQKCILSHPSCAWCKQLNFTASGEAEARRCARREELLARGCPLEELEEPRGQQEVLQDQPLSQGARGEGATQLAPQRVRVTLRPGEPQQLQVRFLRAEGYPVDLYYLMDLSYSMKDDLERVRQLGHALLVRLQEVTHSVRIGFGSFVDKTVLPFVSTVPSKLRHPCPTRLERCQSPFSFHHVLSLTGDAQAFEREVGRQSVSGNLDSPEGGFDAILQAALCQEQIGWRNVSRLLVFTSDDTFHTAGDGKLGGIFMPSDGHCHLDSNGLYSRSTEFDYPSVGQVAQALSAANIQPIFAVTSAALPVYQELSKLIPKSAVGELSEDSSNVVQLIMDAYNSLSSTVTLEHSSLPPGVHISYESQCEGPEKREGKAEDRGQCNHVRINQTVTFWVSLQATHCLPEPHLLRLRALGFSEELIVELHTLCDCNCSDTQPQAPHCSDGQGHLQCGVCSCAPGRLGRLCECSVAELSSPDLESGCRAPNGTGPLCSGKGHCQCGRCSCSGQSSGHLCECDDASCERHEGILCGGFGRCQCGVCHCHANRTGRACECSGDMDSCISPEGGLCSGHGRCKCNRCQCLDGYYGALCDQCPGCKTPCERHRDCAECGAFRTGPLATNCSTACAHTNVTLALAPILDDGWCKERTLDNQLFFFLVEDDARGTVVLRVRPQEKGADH

In general, IC50 refers to the concentration that inhibits the measured activity by half. As to `CC(=O)N[C@@H]1C(=O)N(C)[C@@H](CCCNC(=N)N)C(=O)N[C@@H](CO)C(=O)N[C@@H](CC(=O)O)C(=O)N[C@@H]([C@@H](C)O)C(=O)N[C@@H](CC(C)C)C(=O)N[C@H](C(=O)N[C@@H](Cc2ccc(C(C)(C)C)cc2)C(=O)N[C@@H](CCC(=O)O)CC(=O)N[C@H](CCCCN)C(N)=O)C(C)(C)SSC1(C)C` [compound 153] (Ac-[Pen][NMeR]SDTL[Pen][Phe(4-tBu)][β3hE][dK]-NH2; disulfide 1-7), the half-life at 22 μM in series [1] (pH 6.5, Table 3-B, alone or in parentheses after >360, read-out: Stabilty SIF t1/2, in hr (converted)) was 13.6 h. Also, the half-maximal inhibitory concentration (IC50) in series [2] (setting [4]) fell in the range of 10 to 25 nM; in series [3] (setting [5]), 1000 to 10000 nM.

For `CC(=O)N[C@@H]1C(=O)N(C)[C@@H](CCCNC(=N)N)C(=O)N[C@@H](CO)C(=O)N[C@@H](CC(=O)O)C(=O)N[C@@H]([C@@H](C)O)C(=O)N[C@@H](CC(C)C)C(=O)N[C@H](C(=O)N[C@@H](Cc2cccc3ccccc23)C(=O)N[C@@H](CCC(=O)O)CC(=O)N(C)[C@@H](CCCCNC(=O)COCC(=O)NCCCC[C@@H](C(N)=O)N(C)C(=O)C[C@H](CCC(=O)O)NC(=O)[C@H](Cc2cccc3ccccc23)NC(=O)[C@H]2NC(=O)[C@H](CC(C)C)NC(=O)[C@H]([C@@H](C)O)NC(=O)[C@H](CC(=O)O)NC(=O)[C@H](CO)NC(=O)[C@H](CCCNC(=N)N)N(C)C(=O)[C@@H](NC(C)=O)C(C)(C)SSC2(C)C)C(N)=O)C(C)(C)SSC1(C)C` [compound 142] (I: Ac-[Pen][NMeR]SDTL[Pen][1Nal][β3hE][NMeK]-NH2 / II: Ac-[Pen][NMeR]SDTL[Pen][1Nal][β3hE][NMeK]-NH2; disulfide I:1-I:7, II:1-II:7; linker I:10-II:10 via Diglycolyl), the results for the half-maximal inhibitory concentration (IC50) in series [2] (setting [4]) and in series [3] (setting [5]) were less than 10 nM and 500 to 1000 nM, respectively.

For the compound `CC(=O)N[C@@H]1C(=O)N[C@@H](CCCNC(=N)N)C(=O)N[C@@H](CO)C(=O)N[C@@H](CC(=O)O)C(=O)N[C@@H]([C@@H](C)O)C(=O)N[C@@H](CC(C)C)C(=O)N[C@H](C(=O)N[C@H](CCCCNC(=O)COCC(=O)NCCCC[C@@H](NC(=O)[C@@H]2CSSC(C)(C)[C@H](NC(C)=O)C(=O)N[C@@H](CCCNC(=N)N)C(=O)N[C@@H](CO)C(=O)N[C@@H](CC(=O)O)C(=O)N[C@@H]([C@@H](C)O)C(=O)N[C@@H](CC(C)C)C(=O)N2)C(N)=O)C(N)=O)CSSC1(C)C` [compound 207, (Ac-Pen-R-S-D-T-L-C-k-NH2)2-DIG] (I: Ac-[Pen]RSDTLC[dK]-NH2 / II: Ac-[Pen]RSDTLC[dK]-NH2; disulfide I:1-I:7, II:1-II:7 (inferred); linker I:8-II:8 via Diglycolyl (inferred)), in series [1] (setting [6]), the half-life at 22 μM was less than 0.333 h. Besides, the half-maximal inhibitory concentration (IC50) in series [2] (setting [7]) was found to be 26 nM.

Consider `CC(=O)N[C@@H]1C(=O)N(C)[C@@H](CCCNC(=N)N)C(=O)N[C@@H](CO)C(=O)N[C@@H](CC(=O)O)C(=O)N[C@@H](C(C)O)C(=O)N[C@@H](CC(C)C)C(=O)N[C@H](C(=O)N[C@@H](Cc2ccc(C(C)(C)C)cc2)C(=O)N[C@@H](CCC(=O)O)CC(=O)N[C@H](CCCCNC(=O)COCC(=O)NCCCC[C@@H](NC(=O)C[C@H](CCC(=O)O)NC(=O)[C@H](Cc2ccc(C(C)(C)C)cc2)NC(=O)[C@H]2NC(=O)[C@H](CC(C)C)NC(=O)[C@H](C(C)O)NC(=O)[C@H](CC(=O)O)NC(=O)[C@H](CO)NC(=O)[C@H](CCCNC(=N)N)N(C)C(=O)[C@@H](NC(C)=O)C(C)(C)SSC2(C)C)C(N)=O)C(N)=O)C(C)(C)SSC1(C)C` (stereo partly drawn) [Peptide X, [Ac-Pen-(N-Me-Arg)-Ser-Asp-Thr-Leu-Pen-(Phe(4-tBu))-(β-homoGlu)-(D-Lys)]2-DIG] (I: Ac-[Pen][NMeR]SD[Thr(3ξ)]L[Pen][Phe(4-tBu)][β3hE][dK]-NH2 / II: Ac-[Pen][NMeR]SD[Thr(3ξ)]L[Pen][Phe(4-tBu)][β3hE][dK]-NH2; disulfide I:1-I:7, II:1-II:7; linker I:10-II:10 via Diglycolyl), for which the IC50 in series [2] (1 mM Mg^2+ binding conditions, read-out: IC50 for α4β7, competition ELISA) is 3 nM; in series [3] (1 mM Mg^2+ binding conditions, read-out: IC50 for α4β1, competition ELISA) it was greater than 10000 nM; in series [3] (b977, second statement, conditions not stated, read-out: IC50 for α4β1), greater than 100000 nM.

`CC(=O)N[C@H]1CSSC[C@@H](C(=O)NCC(=O)N[C@@H](CCC(=O)O)C(=O)N[C@@H](CCCCNC(=O)CCOCCOCCOCCOCCOCCOCCOCCOCCOCCOCCOCCOCCOCCOCCOCCOCCOCCOCCOCCOCCOCCOCCOCCOCCOCCC(=O)NCCCC[C@H](NC(=O)[C@H](CCC(=O)O)NC(=O)CNC(=O)[C@@H]2CSSC[C@H](NC(C)=O)C(=O)N[C@@H](CCCNC(=N)N)C(=O)N[C@@H](CO)C(=O)N[C@@H](CC(=O)O)C(=O)N[C@@H]([C@@H](C)O)C(=O)N[C@@H](CC(C)C)C(=O)N2)C(N)=O)C(N)=O)NC(=O)[C@H](CC(C)C)NC(=O)[C@H]([C@@H](C)O)NC(=O)[C@H](CC(=O)O)NC(=O)[C@H](CO)NC(=O)[C@H](CCCNC(=N)N)NC1=O` [compound 197, (Ac-C-R-S-D-T-L-C-G-E-K-NH2)2-PEG25] (I: Ac-CRSDTLCGEK-NH2 / II: Ac-CRSDTLCGEK-NH2; disulfide I:1-I:7, II:1-II:7; linker I:10-II:10 via X2): the half-maximal inhibitory concentration (IC50) in series [2] (setting [7]) was found to be 36 nM; in series [3] (setting [8]), 964 nM.

With `CC(=O)N[C@@H]1C(=O)N(C)[C@@H](CCCNC(=N)N)C(=O)N[C@@H](CO)C(=O)N[C@@H](CC(=O)O)C(=O)N[C@@H]([C@@H](C)O)C(=O)N[C@@H](CC(C)C)C(=O)N[C@H](C(=O)N[C@@H](Cc2c[nH]c3ccccc23)C(=O)N[C@@H](CCC(=O)O)C(=O)N[C@H](CCCCNC(=O)COCC(=O)NCCCC[C@@H](NC(=O)[C@H](CCC(=O)O)NC(=O)[C@H](Cc2c[nH]c3ccccc23)NC(=O)[C@H]2NC(=O)[C@H](CC(C)C)NC(=O)[C@H]([C@@H](C)O)NC(=O)[C@H](CC(=O)O)NC(=O)[C@H](CO)NC(=O)[C@H](CCCNC(=N)N)N(C)C(=O)[C@@H](NC(C)=O)C(C)(C)SSC2(C)C)C(=O)O)C(=O)O)C(C)(C)SSC1(C)C` [compound 78] (I: Ac-[Pen][NMeR]SDTL[Pen]WE[dK]-OH / II: Ac-[Pen][NMeR]SDTL[Pen]WE[dK]-OH; disulfide I:1-I:7, II:1-II:7; linker I:10-II:10 via Diglycolyl), the 50% inhibitory concentration (IC50) in series [2] (setting [4]) is less than 10 nM; in series [3] (setting [5]), 100 to 500 nM.

Consider `CC(=O)N[C@@H]1C(=O)N(C)[C@@H](CCCNC(=N)N)C(=O)N[C@@H](CO)C(=O)N[C@@H](CC(=O)O)C(=O)N[C@@H]([C@@H](C)O)C(=O)N[C@@H](CC(C)C)C(=O)N[C@H](C(=O)N[C@@H](Cc2c[nH]c3ccccc23)C(=O)N[C@H](CCCCN)C(N)=O)C(C)(C)SSC1(C)C` [compound 208, Ac-Pen-N-Me-R-S-D-T-L-Pen-W-k-NH2] (Ac-[Pen][NMeR]SDTL[Pen]W[dK]-NH2; disulfide 1-7), for which the half-life at 22 μM in series [1] (setting [6]) is greater than 6 h. Also, in series [2] (setting [7]), the IC50 came out at 30.5 nM.

Take `CC(=O)N[C@H]1CSSC[C@@H](C(=O)NCC(=O)N[C@@H](CCC(=O)O)C(N)=O)NC(=O)[C@H](CC(C)C)NC(=O)[C@H]([C@@H](C)O)NC(=O)[C@H](CC(=O)O)NC(=O)[C@H](CO)NC(=O)[C@H](CCCNC(=N)N)N(C)C1=O` [compound 198, Ac-C-N-Me-R-S-D-T-L-C-G-E-NH2] (Ac-C[NMeR]SDTLCGE-NH2; disulfide 1-7): the figures for the half-maximal inhibitory concentration (IC50) in series [2] (setting [7]) and in series [3] (setting [8]) were 20 nM and 1290 nM, respectively.
